Measured values taken from patent US20250041262A1, “COMPOSITIONS FOR THE TREATMENT OF FGFR3-RELATED COGNITIVE DEFICITS WITH A CATECHIN” (INSTITUT NATIONAL DE LA SANTÉ ET DE LA RECHERCHE MÉDICALE, priority 2021, published 2025).

Assays:
[1] = test system: Fgfr3^N534K/+ mice (hypochondroplasia mouse model); experiment: Novel object location (NOL), spatial memory, HCH mouse model; assay type: in vivo
Description: 4 months old Fgfr3^N534K/+ mice and Fgfr3^A385E/+ mice received daily subcutaneous administration of (−)-epicatechin (0.15 mg/kg) or vehicle (HcL 3.5 mM, DMSO 2%) for at least seven days. For habituation and testing NOR and NOL, injection was performed 1 hour before testing phase. Timing of injection for the different tests: NOL at 7 days, NOR at 14 days, TST: at 22 days and FST at 24 days. For the novel object location task, all procedures were identical to the novel object recognition task except that during the testing phase, rather than presenting a novel object, mice encountered both familiar objects, with one object located in a different place in the arena. The time and frequency of exploration of the novel/relocated object is measured as an index of memory. Behavior was scored on videos by two observers blind to treatment and the total exploration time of the objects was quantified in the testing phases. To confirm the direct implication of brain FGFR3 in cognitive disorders observed in Fgfr3^N534K/+ mice, we decided to treat mice with (−)-epicatechin bottle treatment. The animals were treated with bottle (−)-epicatechin (3 mg/L) during 4 weeks before behavioural tests.

[2] = test system: Fgfr3^N534K/+ mice (hypochondroplasia mouse model); experiment: Forced swim test (FST), HCH mouse model; assay type: in vivo; settings: adult mice
Description: (§1) 4 months old Fgfr3^N534K/+ mice and Fgfr3^A385E/+ mice received daily subcutaneous administration of (−)-epicatechin (0.15 mg/kg) or vehicle (HcL 3.5 mM, DMSO 2%) for at least seven days. For habituation and testing NOR and NOL, injection was performed 1 hour before testing phase. Timing of injection for the different tests: NOL at 7 days, NOR at 14 days, TST: at 22 days and FST at 24 days. This test is based on a similar observation than the TST. Each mouse is placed in a cylinder (height: 25 cm and diameter: 10 cm) filled with water (23-25° C.). Mice were tested for 5 min, and the time spent immobile (behavioral despair) was quantified. To confirm the direct implication of brain FGFR3 in cognitive disorders observed in Fgfr3^N534K/+ mice, we decided to treat mice with (−)-epicatechin bottle treatment. The animals were treated with bottle (−)-epicatechin (3 mg/L) during 4 weeks before behavioural tests.

[3] = test system: Fgfr3^N534K/+ mice (hypochondroplasia mouse model); experiment: Novel object recognition (NOR), episodic memory, HCH mouse model; assay type: in vivo
Description: (§2) 4 months old Fgfr3^N534K/+ mice and Fgfr3^A385E/+ mice received daily subcutaneous administration of (−)-epicatechin (0.15 mg/kg) or vehicle (HcL 3.5 mM, DMSO 2%) for at least seven days. For habituation and testing NOR and NOL, injection was performed 1 hour before testing phase. Timing of injection for the different tests: NOL at 7 days, NOR at 14 days, TST: at 22 days and FST at 24 days.
(§3) We used a modified version of the NOR task as described in Glatigny et al., 2019. Mice were transported a short distance from the holding mouse facility to the testing room in their home cages and left undisturbed for at least one hour before the beginning of the test. The testing room was lit with two 60-W light bulbs and behavior sessions were recorded with a camera above the testing arena (grey plastic box (60×40×32 cm)). […] The objects elicited equal levels of exploration as determined in pilot experiments and training phase. […]
(§4) The following behaviors were considered as exploration of the objects: sniffing, licking, or touching the object with the nose or with the front legs or directing the nose to the object at a distance≤1 cm. Investigation was not scored if the mouse was on top of the object or completely immobile. The discrimination index was calculated as (time spent exploring the new object-time spent exploring the familiar object)/(total time spent exploring both objects). […]

[4] = test system: Fgfr3^N534K/+ mice (hypochondroplasia mouse model); experiment: Bar beam, locomotion and fine coordination, HCH mouse model; assay type: in vivo; settings: bottle treatment 3 mg/L, 4 weeks; adult mice
Description: The bar beam is a test to measure fine motor coordination and balance in mice by assessing if the mice stay upright and walk across an elevated narrow beam to a safe platform. This test takes place over 2 consecutive days and we measured the time it takes for the mouse to traverse the beam and the maximum distance done To confirm the direct implication of brain FGFR3 in cognitive disorders observed in Fgfr3^N534K/+ mice, we decided to treat mice with (−)-epicatechin bottle treatment. The animals were treated with bottle (−)-epicatechin (3 mg/L) during 4 weeks before behavioural tests.

[5] = test system: Fgfr3^Y367C/+ mouse model; settings: cited from earlier work
[6] = test system: Fgfr3^N534K/+ mice (hypochondroplasia mouse model); experiment: Contextual fear conditioning (CFC), associative memory, HCH mouse model; assay type: in vivo; settings: bottle treatment 3 mg/L, 4 weeks; adult mice
Description: We performed on 4-month-old male mice a test related to the hippocampus associative memory (one-trial contextual fear conditioning, CFC). This test allows us to understand the ability of mice to remember an event associated with memory integration. During this behavorial test, we assess the freezing time of the mice, the mutant mice baseline was similar to control littermates during the training phase (p=0,2303). […] To confirm the direct implication of brain FGFR3 in cognitive disorders observed in Fgfr3^N534K/+ mice, we decided to treat mice with (−)-epicatechin bottle treatment. The animals were treated with bottle (−)-epicatechin (3 mg/L) during 4 weeks before behavioural tests.

[7] = biological target: FGFR3 (Homo sapiens, UniProt P22607); settings: reason for selection; no test described; cited from earlier work
[8] = test system: Fgfr3^N534K/+ mice (hypochondroplasia mouse model); experiment: Tail suspension test (TST), HCH mouse model; assay type: in vivo; settings: bottle treatment 3 mg/L, 4 weeks; adult mice
Description: This test is based on the observation that rodents, after initial escape-oriented movements, develop an immobile posture when placed in an inescapable stressful situation. Each mouse is hung in an uncontrollable fashion by their tail at above 25 cm from the floor. Mice were tested for 5 min, and the time spent immobile was quantified. To confirm the direct implication of brain FGFR3 in cognitive disorders observed in Fgfr3^N534K/+ mice, we decided to treat mice with (−)-epicatechin bottle treatment. The animals were treated with bottle (−)-epicatechin (3 mg/L) during 4 weeks before behavioural tests.

[9] = test system: Fgfr3^N534K/+ mice (hypochondroplasia mouse model); experiment: Morris water maze (MWM), spatial memory, HCH mouse model; assay type: in vivo; settings: bottle treatment 3 mg/L, 4 weeks; adult mice
Description: The Morris water maze (MWM) is a test of spatial learning for mice that relies on distal cues to navigate from a start location to locate a submerged escape platform. Spatial learning is assessed across repeated trials during 8 days and reference memory is determined by location of the platform area. To confirm the direct implication of brain FGFR3 in cognitive disorders observed in Fgfr3^N534K/+ mice, we decided to treat mice with (−)-epicatechin bottle treatment. The animals were treated with bottle (−)-epicatechin (3 mg/L) during 4 weeks before behavioural tests.

[10] = test system: Fgfr3^A385E/+ mice (CAN mouse model); experiment: Forced swim test (FST), CAN mouse model; assay type: in vivo; settings: subcutaneous injections for 7 days at least; 4-month-old mice
Description: as §1, with “quantified.” for “quantified. To confirm the direct implication of brain FGFR3 in cognitive disorders observed in Fgfr3^N534K/+ mice, we decided to treat mice with (−)-epicatechin bottle treatment. The animals were treated with bottle (−)-epicatechin (3 mg/L) during 4 weeks before behavioural tests.”

[11] = test system: Fgfr3^A385E/+ mice (CAN mouse model); experiment: Novel object recognition (NOR), CAN mouse model; assay type: in vivo; settings: subcutaneous injections for 7 days at least; 4-month-old mice
Description: as §2, §3, §4

[12] = bottle treatment 3 mg/L, 4 weeks, adult mice
[13] = subcutaneous injection, in vivo and/or in vitro

FGFR3, sequence (P22607 23-806): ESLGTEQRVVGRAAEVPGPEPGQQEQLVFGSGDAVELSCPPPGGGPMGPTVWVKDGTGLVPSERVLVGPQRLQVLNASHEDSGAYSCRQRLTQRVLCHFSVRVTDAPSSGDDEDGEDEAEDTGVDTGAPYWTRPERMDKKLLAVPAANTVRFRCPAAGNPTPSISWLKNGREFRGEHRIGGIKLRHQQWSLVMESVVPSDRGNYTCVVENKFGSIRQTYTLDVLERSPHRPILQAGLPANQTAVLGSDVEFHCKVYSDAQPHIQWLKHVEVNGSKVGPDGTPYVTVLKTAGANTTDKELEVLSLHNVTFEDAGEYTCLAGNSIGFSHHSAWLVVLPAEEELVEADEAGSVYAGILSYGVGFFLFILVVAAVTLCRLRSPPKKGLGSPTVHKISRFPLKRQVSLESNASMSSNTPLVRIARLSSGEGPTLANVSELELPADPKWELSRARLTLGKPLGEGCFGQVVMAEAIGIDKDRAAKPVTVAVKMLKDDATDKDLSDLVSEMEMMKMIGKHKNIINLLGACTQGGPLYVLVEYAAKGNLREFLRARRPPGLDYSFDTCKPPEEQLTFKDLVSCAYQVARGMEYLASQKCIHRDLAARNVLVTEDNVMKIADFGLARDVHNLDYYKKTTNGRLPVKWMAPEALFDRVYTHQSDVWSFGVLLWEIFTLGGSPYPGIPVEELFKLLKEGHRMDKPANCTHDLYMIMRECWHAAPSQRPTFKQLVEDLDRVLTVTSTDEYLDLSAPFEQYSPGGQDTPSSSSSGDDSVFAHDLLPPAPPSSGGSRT

Question: Which results are given for Oc1cc(O)c2c(c1)O[C@H](c1ccc(O)c(O)c1)[C@H](O)C2 [(−)-epicatechin, (2R,3R)-2-(3,4-dihydroxyphenyl)-3,4-dihydro-2H-chromene-3,5,7-triol]?
Answer: spatial memory deficits (NOL) [1, 12]: rescue; spatial memory deficits (NOL), exploration of relocated object ([1]; daily subcutaneous 0.15 mg/kg, at least seven days, 4 months old male mice, vs control littermates p=0,9538): sufficient to restore; antidepressant effect (FST) ([2]; bottle treatment 3 mg/L, 4 weeks): rescue; antidepressant effect ([2]; subcutaneous injection, FST and TST of FIG. 1): rescue; episodic memory deficits (NOR) [3, 12]: rescue; episodic memory deficits (NOR), exploration of novel object ([3]; daily subcutaneous 0.15 mg/kg, at least seven days, 4 months old male mice, vs control littermates p=0,8697): sufficient to restore; locomotion and coordination fine (Bar beam) [4]: rescue; efficacy in skeletal anomalies ([5]; FGFR3 related Achondroplasia mouse model (Martin et al 2021)): showed the efficacy; functional activation of the FGFR3 downstream signalling pathway [5, 13]: sufficient to abolish or eliminating; impairment of the ciliogenesis [5, 13]: restore; associative memory deficits (CFC) [6]: rescue; binding specificity for FGFR3 [7]: highest binding specificity; antidepressant effect (TST) [8]: rescue; spatial memory deficits (Morrys Water Maze) [9]: rescue; coping strategy to an inescapable stress (FST) [10]: reestablished the coping strategy; memory deficits in the NOR paradigm [11]: reversed the memory deficits
